In patent US10342697B2, “Systems and methods for delivering drugs to an eye” (Avedro, Inc., priority 2016, dated 2019):
Entries after “also recorded” stand apart in the source; their conditions may differ.

Key:
[1] = system: pig eyes with intact epithelium; assay: Relative fluorescence F/Fo of cross-linked corneal flaps, Polidocanol vs BAC riboflavin solutions (Study 4); settings: 20 min soak, 30 mW/cm^2, FIGS. 7-15
Experimental: The epitheliums of eyes in Group A were removed with a dull blade after the eyes were soaked in one of the solutions and irradiated pan-corneally on air with a top hat beam (3% root mean square) for 4 minutes with 365-nm light source (UV LED NCSU033B[T]; Nichia Co., Tokushima, Japan) at a chosen irradiance of 30 mW/cm^2 which was measured with a power sensor (model PD-300-UV; Ophir, Inc., Jerusalem, Israel) at the corneal surface. Corneal flaps (approximately 200 μm thick) were excised from the eyes with aid of an Intralase femtosecond laser (Abbot Medical Optics, Santa Ana, Calif.). The average thickness of the corneal flaps was calculated as a difference between the measurements before and after the excision from the eyes with an ultrasonic Pachymeter (DGH Technology, Exton, Pa.). The flaps were washed with distilled water and dried in a vacuum until the weight change became less than 10% (Rotary vane vacuum pump RV3 A652-01-903, BOC Edwards, West Sussex, UK). […] Papain digests were diluted 0.5 times with 1×BBBS and fluorescence of the solutions was measured with excitation of 360 nm in a QM-40 Spectrofluorometer (Photon Technology Int., London, Ontario, Canada). The fluorescence of the papain buffer was taken into account by measuring fluorescence in the absence of tissue and subtracting this value from the fluorescence of the samples. […]

[2] = system: epithelium; assay: Corrosiveness/damage to the epithelium; settings: compared with BAC

## Polyoxyethylene (9) lauryl ether [Polidocanol]
[1]
  enhancing permeability in the epithelium and generating cross-linking activity: more effective than many other surfactants; also recorded: far more effective and efficient than BAC
[2]
  corrosive and damaging to the epithelium: less corrosive and damaging to the epithelium than BAC
